Measurements as given in patent US11230541B2, “Heterocyclic compound” (Takeda Pharmaceutical Company Limited, priority 2017, dated 2022).

Target: T1, NMDA receptor composed of four subunits including 2 sets of heterodimers of NR1 and NR2B (Homo sapiens, UniProt Q13224)
T1 construct: host or cells: HEK293 (tetracycline-induced expression)
Assay: NR2B Ca2+ influx assay (FLIPR, Fluo-4) in HEK293 cells expressing human GRIN1 and GRIN2B
Type: cell-based
Settings: 10 μM final compound concentration, glutamic acid/glycine-induced Ca2+ influx
Description: To confirm the “antagonistic action on an NMDA receptor containing the NR2B subunit” of the compound of the present invention, human embryonic kidney cell expressing the “NMDA receptor composed of four subunits including 2 sets of heterodimers of NR1 and NR2B”, specifically HEK293 cell expressing human glutamate ionotropic receptor NMDA type subunit 1 (GRIN1) and human glutamate ionotropic receptor NMDA type subunit 2B (GRIN2B), was used and the activation suppressive effect on the receptors was measured.
As an index of the NMDA receptor activation, intracellular calcium ion (Ca^2+) influx caused by the binding of glycine and glutamic acid with NR1 and NR2B, respectively, was used. HEK293 cells were purchased from ChanTest. The cells were cultured in a DMEM/F-12 (COSMO BIO, 10-092-CM) medium added with 10% FBS′(fetal bovine serum, AusGene), 100 units/mL penicillin, 100 μg/mL streptomycin, 500 μg/mL neomycin, 100 μg/mL Zeocin, 5 μg/mL Blasticidin at 37° C., 5% CO2. The cells were detached from flask with trypsin the day before the assay, suspended in a seeding medium (DMEM (Invitrogen, 31053) added with 10% FBS, 100 units/mL penicillin, 100 μg/mL streptomycin) at 8×10^5 cells/mL, seeded by 25 μL per well in a 384-well plate (Falcon, 356663) at 20000 cells/well, and cultured overnight in an incubator. On the day of the assay, tetracycline (Wako Pure Chemical Industries, Ltd., 209-16561) was diluted with the seeding medium at 2 μg/mL, added at […] to the plate seeded with the cells, and cultured for 2 hr in an incubator. Thereafter, the medium was removed, and the cells were washed with 50 μL/well assay buffer (137 mM NaCl, 4 mM KCl, 1.8 mM CaCl2, 10 mM HEPES (pH 7.2), 10 mM Glucose, 0.1% BSA). Then, a loading buffer (assay buffer added with 2.5 uM Fluo-4AM, 2 mM Amaranth, 1 mM Tartrazine) was added at 25 μL/well, and loading was performed in the incubator for 30 min, and at room temperature for 15 min. A solution (25 μL) of the Example compound diluted with the above-mentioned assay buffer at 30 μM (final concentration 10 μM) was added, and the cells were stood for 15 min at room temperature. Using FLIPR (Molecular Devices), 25 μL of an assay buffer containing 30 μM glutamic acid, 30 μM glycine was added, and the fluorescence signal was measured every 3 seconds for 5 min. The inhibitory activity was calculated as a relative activity value (inhibitory rate) that inhibits 100% of the cumulative value of the fluorescence value of a well added with a buffer free of glutamic acid, glycine, relative to the cumulative value of the fluorescence value of each well.

T1 sequence (Q13224 27-1484, other chains not shown): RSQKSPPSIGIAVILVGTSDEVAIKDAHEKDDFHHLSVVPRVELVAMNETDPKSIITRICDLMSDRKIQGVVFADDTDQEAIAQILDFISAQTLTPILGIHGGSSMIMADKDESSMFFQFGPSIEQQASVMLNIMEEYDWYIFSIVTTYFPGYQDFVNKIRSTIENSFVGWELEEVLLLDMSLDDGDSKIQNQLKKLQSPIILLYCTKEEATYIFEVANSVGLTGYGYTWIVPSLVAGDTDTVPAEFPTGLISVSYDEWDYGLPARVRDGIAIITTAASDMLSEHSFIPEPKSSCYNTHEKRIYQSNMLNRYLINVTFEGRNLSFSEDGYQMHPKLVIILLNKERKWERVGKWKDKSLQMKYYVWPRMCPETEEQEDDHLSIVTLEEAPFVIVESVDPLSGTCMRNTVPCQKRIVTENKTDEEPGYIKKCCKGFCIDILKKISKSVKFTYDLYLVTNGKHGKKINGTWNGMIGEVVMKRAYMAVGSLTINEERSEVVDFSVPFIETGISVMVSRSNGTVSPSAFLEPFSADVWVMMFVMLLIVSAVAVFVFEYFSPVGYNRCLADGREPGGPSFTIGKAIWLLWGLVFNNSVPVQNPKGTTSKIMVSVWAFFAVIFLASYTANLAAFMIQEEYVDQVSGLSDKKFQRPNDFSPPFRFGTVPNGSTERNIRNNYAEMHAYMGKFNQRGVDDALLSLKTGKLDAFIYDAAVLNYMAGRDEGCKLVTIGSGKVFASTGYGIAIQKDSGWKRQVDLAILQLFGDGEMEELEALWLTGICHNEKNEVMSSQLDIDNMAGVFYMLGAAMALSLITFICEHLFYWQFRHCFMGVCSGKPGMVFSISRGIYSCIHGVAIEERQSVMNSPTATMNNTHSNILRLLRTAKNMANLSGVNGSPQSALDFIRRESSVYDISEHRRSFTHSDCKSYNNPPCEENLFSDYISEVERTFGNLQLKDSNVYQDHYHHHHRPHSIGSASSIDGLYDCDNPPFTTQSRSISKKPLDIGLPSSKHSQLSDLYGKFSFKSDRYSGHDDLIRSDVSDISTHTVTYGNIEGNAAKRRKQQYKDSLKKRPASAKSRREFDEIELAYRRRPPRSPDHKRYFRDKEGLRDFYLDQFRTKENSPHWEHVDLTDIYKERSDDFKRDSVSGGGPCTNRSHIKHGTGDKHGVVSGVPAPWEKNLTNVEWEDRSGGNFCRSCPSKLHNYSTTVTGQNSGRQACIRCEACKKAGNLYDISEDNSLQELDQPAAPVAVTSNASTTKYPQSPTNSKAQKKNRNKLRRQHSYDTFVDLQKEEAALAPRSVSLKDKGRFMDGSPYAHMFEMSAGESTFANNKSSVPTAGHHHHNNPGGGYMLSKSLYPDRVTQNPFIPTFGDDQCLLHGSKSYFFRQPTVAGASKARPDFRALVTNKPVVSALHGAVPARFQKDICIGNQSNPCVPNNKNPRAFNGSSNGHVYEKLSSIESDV

| inhibitory rate (10 μM compound concentration) | Structure (SMILES) |
| --- | --- |
| 89 | COc1ccc2ncn(C)c2c1CNC(=O)c1ccc(C(F)(F)F)s1 [Example 50, N-((6-methoxy-1-methyl-1H-benzimidazol-7-yl)-methyl)-5-(trifluoro-methyl)thiophene-2-carboxainide] |

Same assay, conditions: HEK293, 10 μM final compound concentration, glutamic acid/glycine-induced Ca2+ influx, read-out: inhibitory rate (10 μM compound concentration)

| inhibition at 10 µM [%] | Structure (SMILES) |
| --- | --- |
| 94 | Cc1ccc2ncn(C)c2c1CNC(=O)c1ccc(OC(F)(F)F)c(Cl)c1 [Example 60, 3-chloro-N-((1,6-dimethyl-1H-benzimidazol-7-yl)-methyl)-4-(trifluoro-methoxy)benzamide] |
| 90 | COc1ccc2ncn(C)c2c1CNC(=O)c1cc(F)c(F)c(F)c1 [Example 41, 3,4,5-trifluoro-N-((6-methoxy-1-methyl-1H-benzimidazol-7-yl)methyl)benzamide] |
| 89 | Cc1ccc2ncn(C)c2c1CNC(=O)c1csc(C(F)(F)F)c1 [Example 163, N-((1,6-dimethyl-1H-benzimidazol-7-yl)methyl)-5-(trifluoromethyl)-thiophene-3-carboxamide] |
| 93 | CCc1ccc2ncn(C)c2c1CNC(=O)c1ccc(OC(F)(F)F)nc1 [Example 149, N-((6-ethyl-1-methyl-1H-benzimidazol-7-yl)methyl)-6-(trifluoromethoxy)-nicotinamide] |
| 74 | COc1ccc2ncn(C)c2c1CNC(=O)Nc1ccc(F)c(C(F)(F)F)c1 [Example 267, 1-(4-fluoro-3-(trifluoromethyl)-phenyl)-3-((6-methoxy-1-methyl-lH-benzimidazol-7-yl)methyl)urea] |
| 57 | COc1ccc2nc(C)n(C)c2c1CNC(=O)c1cnc(OC)c(F)c1 [Example 235, 5-fluoro-6-methoxy-N-((6-methoxy-1,2-dimethyl-1H-benzimidazol-7-yl)methyl)nicotinamide] |
| 87 | COc1ccc2ncn(C)c2c1CNC(=O)c1cc(F)c(F)c(Cl)c1 [Example 18, 3-chloro-4,5-difluoro-N-((6-methoxy-1-methyl-1H-benzimidazol-7-yl)methyl)benzamide] |
| 76 | COCc1ccc2ncn(C)c2c1CNC(=O)c1csc(C(F)(F)F)c1 [Example 282, N-{[6-(methoxymethyl)-1-methyl-lH-benzimidazol-7-yl]methyl)-5-(trifluoromethyl)-thiophene-3-carboxamide] |
| 91 | COc1ccc2ncn(C)c2c1CNC(=O)c1ccc(OC(F)(F)F)c(F)c1 [Example 52, 3-fluoro-N-((6-methoxy-1-methyl-1H-benzimidazol-7-yl)methyl)-4-(trifluoro-methoxy)benzamide] |
| 60 | COc1ncc(C(=O)NCc2cccc3[nH]ncc23)cc1F [Example 172, 5-fluoro-N-(1H-indazol-4-ylmethyl)-6-methoxynicotinamide] |
| 91 | CCc1ccc2ncn(C)c2c1CNC(=O)c1ccc(OC)c(F)c1 [Example 130, N-((6-ethyl-1-methyl-1H-benzimidazol-7-yl)methyl)-3-fluoro-4-methoxybenzamide] |
| 61 | COc1ccc2nc(C)n(C)c2c1CNC(=O)c1ccc(C)c(F)c1 [Example 238, 3-fluoro-N-((6-methoxy-1,2-dimethyl-1H-benzimidazol-7-yl)methyl)-4-methylbenzamide] |
| 82 | Cc1ccc2nn(C)cc2c1CNC(=O)c1ccc(OC(F)(F)F)cc1 [Example 1, N-((2,5-dimethyl-2H-indazol-4-yl)methyl)-4-(trifluoromethoxy)benzamide] |
| 92 | O=C(NCc1c(C2CC2)ccc2[nH]ncc12)c1ccc(C(F)F)s1 [Example 155, N-((5-cyclopropyl-1H-indazol-4-yl)methyl)-5-(difluoromethyl)-thiophene-2-carboxamide] |
| 93 | COc1c(F)cc(C(=O)NCc2c(C3CC3)ccc3[nH]ncc23)cc1F [Example 17, N-((5-cyclopropyl-1H-indazol-4-yl)methyl)-3,5-difluoro-4-methoxybenzamide] |
| 77 | COc1ccc2ncn(C)c2c1CNC(=O)c1cc(C)c(OC)c(C)c1 [Example 35, 4-methoxy-N-((6-methoxyl-methyl-1H-benzimidazol-7-yl)methyl)-3,5-dimethylbenzamide] |
| 93 | CCc1ccc2ncn(C)c2c1CNC(=O)c1cc(F)c(OC)c(F)c1 [Example 23, N-((6-ethyl-1-methyl-1H-benzimidazol-7-yl)-methyl)-3,5-difluoro-4-methoxybenzamide] |

| inhibition at 10 µM [%] | Structure (SMILES) |
| --- | --- |
| 72 | Cc1ccc2ncn(C)c2c1CNC(=O)c1ccc(C(F)F)s1 [Example 137, 5-(difluoromethyl) -N-((1,6-dimethyl-1H-benzimidazol-7-yl)methyl)thiophene-2-carboxamide] |
| 93 | O=C(NCc1cccc2[nH]ncc12)c1cc(F)c(OC(F)F)c(F)c1 [Example 184, 4-(difluoromethoxy)-3,5-difluoro-N-(1H-indazol-4-ylmethyl)benzamide] |
| 92 | COc1c(F)cc(C(=O)NCc2c(C)ccc3ncn(C)c23)cc1F [Example 25, N-((1,6-dimethyl-1H-benzimidazol-7-yl)-methyl)-3,5-difluoro-4-methoxybenzamide] |
| 86 | COc1ncc(C(=O)NCc2c(C)ccc3[nH]nnc23)cc1F [Example 193, 5-fluoro-6-methoxy-N-((5-methyl-1H-benzotriazol-4-yl)methyl)nicotinamide] |
| 94 | O=C(NCc1c(C2CC2)ccc2[nH]ncc12)c1cc(F)c(Cl)c(F)c1 [Example 90, 4-chloro-N-((5-cyclo-propyl-1H-indazol-4-yl)methyl)-3,5-difluorobenzamide] |
| 91 | O=C(NCc1c(C2CC2)ccc2[nH]ncc12)c1ccc(OC(F)F)cc1 [Example 100, N-((5-cyclopropyl-1H-indazol-4-yl)methyl)-4-(difluoromethoxy)-benzamide] |
| 94 | Cc1cc(C(=O)NCc2c(C3CC3)ccc3[nH]ncc23)ccc1Cl [Example 73, 4-chloro-N-((5-cyclopropyl-1H-indazol-yl)methyl)-3-methylbenzamide] |
| 83 | Cc1ccc2[nH]nnc2c1CNC(=O)c1cc(F)c(F)c(Cl)c1 [Example 202, 3-chloro-4,5-difluoro-N-((5-methyl-1H-benzotriazol-4-yl)methyl)benzamide] |
| 93 | COc1ncc(C(=O)NCc2c(C3CC3)ccc3[nH]ncc23)cc1Cl [Example 103, 5-chloro-N-((5-cyclopropyl-1H-indazol-yl)methyl)-6-methoxynicotinamide] |
| 94 | O=C(NCc1cccc2[nH]ncc12)c1cnc(OC(F)F)c(F)c1 [Example 191, 6-(difluoromethoxy)-5-fluoro-N-(1H-indazol-4-ylmethyl)nicotinamide] |
| 88 | COc1ccc2ncn(C)c2c1CNC(=O)Nc1ccc(OC(F)F)cc1 [Example 221, 1-(4-(difluoromethoxy)-phenyl)-3-((6-methoxy-1-methyl-lH-benzimidazol-7-yl)methyl)urea] |
| 91 | CCOc1ccc2ncn(C)c2c1CNC(=O)c1ccc(C(F)(F)F)cc1 [Example 128, N-((6-ethoxy-1-methyl-1H-benzimidazol-7-yl)methyl)-4-(trifluoromethyl)-benzamide] |
| 95 | COc1c(F)cc(C(=O)NCc2cccc3[nH]nnc23)cc1F [Example 211, N-(1H-benzotriazol-4-ylmethyl)-3,5-difluoro-4-methoxybenzamide] |
| 91 | Cc1ccc(C(=O)NCc2c(C3CC3)ccc3[nH]ncc23)cc1 [Example 99, N-((5-cyclopropyl-1H-indazol-4-yl)methyl)-methylbenzamide] |
| 85 | COc1ccc2ncn(C)c2c1CNC(=O)c1cc(C)c(F)c(F)c1 [Example 54, 3,4-difluoro-N-((6-methoxy-1-methyl-1H-benzimidazol-7-yl)-methyl)-5-methyl-benzamide] |
| 85 | Cc1ccc2ncn(C)c2c1CNC(=O)c1ccc(C(F)F)cc1 [Example 157, 4-(difluoromethyl)-N-((1,6-dimethyl-1H-benzimidazol-7-yl)methyl)benzamide] |
| 93 | COc1ccc(C(=O)NCc2c(C3CC3)ccc3[nH]ncc23)cc1F [Example 94, N-((5-cyclopropyl-1H-indazol-4-yl)methyl)-3-fluoro-4-methoxy-benzamide] |
